From patent US12629398B2, “Method of alleviating obsessive compulsive disorder symptoms by use of a multi-strain probiotic formulation” (Unique Biotech Limited, priority 2024, dated 2026)
Entries after “also recorded” stand apart in the source; their conditions may differ. Counter-ions that a name gives are not always drawn.

Key:
quinpirole-injected rats [1] = assay: Elevated plus maze (EPM) test, anxiety-like behavior, quinpirole OCD model; format: in vivo, Wistar rats; conditions: fluoxetine 10 mg/kg peroral 6 weeks with quinpirole
From the text: (§1) Experimental design was as given in Ref 12, incorporated herein in its entirety. The rats were randomly distributed into 5 different groups, with 6-8 rats per group (FIG. 1). Group 1, referred to as the “Vehicle” group, received the vehicle for a duration of 8 weeks. Group 2, denoted as the “Probiotic” group, received the peroral (PO) multistrain probiotic at a dose of 1× 10^10 CFU per rat for 8 weeks.

quinpirole-injected rats [2] = assay: Marble burying test, quinpirole OCD model; format: in vivo, Wistar rats; conditions: 10 min; quinpirole vs. control; quinpirole effect among rats that received probiotic or fluoxetine
From the text: as §1

quinpirole-injected rats [3] = assay: Self-grooming test, quinpirole OCD model; format: in vivo, Wistar rats; conditions: 10 min; quinpirole vs. vehicle; treatments vs. quinpirole group
From the text: as §1

quinpirole-injected rats [4] = assay: Hole board test, quinpirole OCD model; format: in vivo, Wistar rats; conditions: 5-minute session; quinpirole vs. vehicle; treatments in quinpirole rats
From the text: as §1

nNOS = assay: Western blot analysis of nNOS in the frontal cortex; format: in vivo, rat; conditions: quinpirole vs. vehicle, treatments vs. quinpirole group
From the text: as §1
Radioimmunoprecipitation Assay (RIPA) buffer was used to homogenize the frontal cortex part of the rat brain and then resolved using sodium dodecyl sulfate-polyacrylamide gel electrophoresis (SDS-PAGE). The proteins were then transferred to a nitrocellulose membrane, blocked with 5% bovine serum albumin, and incubated with the primary antibody anti-NOS1 (sc-5302, 1:1000 dilution) overnight at 4° C., followed by incubation with horseradish peroxidase-conjugate secondary antibody at RT. The required proteins were then detected by using an ECL solution.

TNF-α = assay: Real-time PCR of cytokine mRNA in the amygdala: TNF-α; format: in vivo, rat; conditions: quinpirole vs. vehicle, treatments vs. quinpirole group
Description: as §1
(§2) RT-PCR was performed to analyze the impact of a multistrain probiotic on cytokines mRNA expression (Ref 20, Rahman et al). Briefly, NucleoSpin® RNA isolation kit (#740955.50, DSS Takara Bio India Private Ltd) was used to extract RNA from the rat brain's amygdala. PrimeScript™ 1st strand cDNA synthesis kit (#6110A, DSS Takara Bio India Private Ltd) was used to process these RNA samples to cDNA. The 10 μL reaction mixture was prepared by mixing 5 μL of SYBR Green, 2 μL of the PCR primer (1 μL reverse+1 μL forward) (GCC Biotech, India, Private Ltd.). 1 μL of diluted cDNA template and 2 μL nuclease-free water. For each PCR test, the threshold cycle numbers were averaged across all samples. Using Δ/Δ Ct technique, the relative mRNA expression was calculated. The primers were designed (Table 6) using the software tools NCBI BLAST.

IL-6 = assay: Real-time PCR of cytokine mRNA in the amygdala: IL-6; format: in vivo, rat; conditions: quinpirole vs. vehicle, treatments vs. quinpirole group
Description: as §1, §2

CRP = assay: Real-time PCR of cytokine mRNA in the amygdala: CRP; format: in vivo, rat; conditions: quinpirole vs. vehicle, treatments vs. quinpirole group
Description: as §1, §2

SCFAs = assay: Short-chain fatty acids (SCFAs) in fecal samples by GC-FID; format: in vivo, rat; conditions: treatments given in quinpirole rats, compared to OCD, unit from Table 7
From the text: as §1
The gas chromatography-flame ionization detection (GC-FID) was used to evaluate the effect of OCD on bacterial metabolites as described earlier in our publications (Ref 22, Rahman et al & Ref 23, Satti et al). Briefly, supernatant acidified with HCL (5 M) and then extracted in diethyl ether to estimate the SCFAs. The acetate, propionate, and butyrate levels were estimated by loading the known amount of each SCFA.

colon = assay: Colon histopathology (H&E and alcian blue-PAS staining); format: in vivo, rat; conditions: quinpirole vs. control, treatments vs. quinpirole-recipient rats
Description: as §1
To examine the gut permeability, H&E and alcian-blue PAS staining were performed. The method is already described in our publications (Ref 20, 21, and 22), incorporated herein in its entirety. Briefly, sections were processed for deparaffinization with xylene, rehydration with alcohol, and then stained with H&E and alcian blue-PAS agents. Finally, slides were mounted with (DPX) followed by observations under a microscope (Leica-ICC50 W).

| SMILES | open-arms activity (quinpirole-injected rats [1]) | number of marbles buried (increase by quinpirole) (quinpirole-injected rats [2]) | self-grooming activity (number of grooming episodes, score) (quinpirole-injected rats [3]) | head dipping activity (quinpirole-injected rats [4]) | expression of nNOS (nNOS) | mRNA expression of TNF-α (TNF-α) | mRNA expression of IL-6 (IL-6) | mRNA expression of CRP (CRP) | butyrate level (SCFAs) [µg/mL] | propionate level (SCFAs) [µg/mL] | number of mature goblet cells (colon) | villus height/crypt depth ratio (colon) |
| --- | --- | --- | --- | --- | --- | --- | --- | --- | --- | --- | --- | --- |
| CNCCC(Oc1ccc(C(F)(F)F)cc1)c1ccccc1 (stereo not shown) [Fluoxetine, fluoxetine] | improved | nonsignificant | did not notice any change | less response | significantly reduced; also recorded: decreased | prevents | prevents | prevents | 3.39 ± 0.32 | 2.99 ± 0.55 | significantly increased | significantly increased |
| CCCN1CCC[C@@H]2Cc3n[nH]cc3C[C@H]21 [Quinpirole, (−)-Quinpirole hydrochloride] | – | – | – | – | – | – | – | significant increase | – | – | – | – |
